ChEMBL document CHEMBL3352346, “Optimization of sphingosine-1-phosphate-1 receptor agonists: effects of acidic, basic, and zwitterionic chemotypes on pharmacokinetic and pharmacodynamic profiles” (J Med Chem, 2014)

Tests used:
[1] = target: Sphingosine 1-phosphate receptor 1 (Homo sapiens, UniProt P21453); test: Agonist activity at human S1P1R expressed in RH7777 membranes assessed as [35S]GTPgammaS binding after 30 mins; type: functional, cell membranes
[2] = target: Sphingosine 1-phosphate receptor 3 (Homo sapiens, UniProt Q99500); test: Agonist activity at human S1P3R expressed in RBL membranes assessed as [35S]GTPgammaS binding after 30 mins; type: functional, cell membranes
Chain of Sphingosine 1-phosphate receptor 3 (Q99500 whole entry): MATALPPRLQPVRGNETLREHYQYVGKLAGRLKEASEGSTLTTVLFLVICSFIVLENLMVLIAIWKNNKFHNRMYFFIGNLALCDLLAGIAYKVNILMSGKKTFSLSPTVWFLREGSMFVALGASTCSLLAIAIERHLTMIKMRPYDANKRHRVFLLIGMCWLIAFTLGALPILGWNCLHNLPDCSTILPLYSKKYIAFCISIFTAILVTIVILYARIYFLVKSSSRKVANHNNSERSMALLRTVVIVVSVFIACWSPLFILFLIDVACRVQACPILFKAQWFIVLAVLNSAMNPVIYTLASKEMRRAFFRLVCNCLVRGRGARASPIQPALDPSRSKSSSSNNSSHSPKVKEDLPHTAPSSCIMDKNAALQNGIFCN

Albumin = Albumin (Homo sapiens, UniProt P02768); test: Fraction unbound as a percentage in human serum albumin; type: ADME
Chain of Albumin (P02768 whole entry): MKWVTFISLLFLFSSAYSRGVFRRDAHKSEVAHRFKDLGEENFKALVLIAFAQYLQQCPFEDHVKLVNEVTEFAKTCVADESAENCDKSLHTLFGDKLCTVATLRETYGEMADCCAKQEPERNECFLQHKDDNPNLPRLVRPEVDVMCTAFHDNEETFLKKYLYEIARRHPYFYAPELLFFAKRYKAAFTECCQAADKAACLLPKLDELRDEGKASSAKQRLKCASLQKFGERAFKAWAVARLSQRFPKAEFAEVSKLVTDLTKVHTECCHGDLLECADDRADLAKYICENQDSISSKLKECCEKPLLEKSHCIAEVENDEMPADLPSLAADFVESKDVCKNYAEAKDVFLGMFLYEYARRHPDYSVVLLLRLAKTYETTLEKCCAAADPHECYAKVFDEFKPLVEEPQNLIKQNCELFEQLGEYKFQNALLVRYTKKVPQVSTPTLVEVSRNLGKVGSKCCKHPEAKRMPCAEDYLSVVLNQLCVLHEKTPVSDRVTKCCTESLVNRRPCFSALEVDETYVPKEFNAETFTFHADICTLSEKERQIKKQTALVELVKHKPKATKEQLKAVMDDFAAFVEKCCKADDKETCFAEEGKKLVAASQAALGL

Chain of Sphingosine 1-phosphate receptor 1 (P21453 whole entry): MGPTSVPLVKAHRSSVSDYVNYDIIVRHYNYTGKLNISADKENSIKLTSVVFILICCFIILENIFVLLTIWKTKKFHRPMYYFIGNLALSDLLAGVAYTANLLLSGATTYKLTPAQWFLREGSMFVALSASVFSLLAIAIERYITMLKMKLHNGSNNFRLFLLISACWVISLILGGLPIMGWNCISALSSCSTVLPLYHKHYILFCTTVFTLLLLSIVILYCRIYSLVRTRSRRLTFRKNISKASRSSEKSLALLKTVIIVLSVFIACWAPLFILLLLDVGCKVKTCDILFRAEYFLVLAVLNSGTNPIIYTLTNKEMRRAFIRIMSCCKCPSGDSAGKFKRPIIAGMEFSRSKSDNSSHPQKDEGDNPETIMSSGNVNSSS

Structure (SMILES)	EC50 [1] [nM]	EC50 [2] [nM]	fraction unbound (Albumin)
CC(C)Oc1ccc(-c2nc(-c3ccc4c(c3)OCCNC4)no2)cc1Cl	316	> 31600	
CC(C)Oc1ccc(-c2nc(-c3cccc4c3CCNCC4)no2)cc1C#N	2	7940	
CC(C)Oc1ccc(-c2nc(-c3cccc4c3CN(CCCC(=O)O)C4)no2)cc1C#N	398	> 31600	
CC(C)Oc1ccc(-c2nc(-c3ccc4c(c3)CCN(CCC(=O)O)CC4)no2)cc1Cl	7.94	10000	
CC(C)Oc1ccc(-c2nc(-c3ccc4c(c3)CCNC4)no2)cc1C#N	3.98	31600	
CC(C)Oc1ccc(-c2nc(-c3cccc4c3CCCNC4)no2)cc1Cl	631	> 31600	
CC(C)Oc1ccc(-c2nc(-c3ccc4c(c3)CN(CCC(=O)O)CCO4)no2)cc1C#N	50.1	> 31600	
CC(C)Oc1ccc(-c2nc(-c3cccc4c3OCCNC4CCCC(=O)O)no2)cc1Cl (centres undefined)	10	25100	
CC(C)Oc1ccc(-c2nc(-c3ccc4c(c3)CNC(C(=O)O)CO4)no2)cc1Cl (centres undefined)	5.01	794	
CC(C)Oc1ccc(-c2nc(-c3ccc4c(c3)CCCNC4)no2)cc1Cl	398	> 31600	
CC(C)Oc1ccc(-c2nc(-c3ccc4c(cnn4CCC(=O)O)c3)no2)cc1Cl	31.6	> 31600	0.013
CC(C)Oc1ccc(-c2nc(-c3ccc4c(c3)CNCCO4)no2)cc1C#N	25.1	6310	
CC(C)Oc1ccc(-c2nc(-c3ccc4c(c3)CN(CCCC(=O)O)CCO4)no2)cc1C#N	63.1	25100	
CC(C)Oc1ccc(-c2nc(-c3cccc4c3CCN(CC(=O)O)CC4)no2)cc1Cl	2510	> 31600	
O=C(O)c1cnn(Cc2ccc(-c3noc(-c4cc(-c5ccccc5)c(C(F)(F)F)s4)n3)cc2)c1	251	1580	0.01
CC(C)Oc1ccc(-c2nc(-c3ccc4c(c3)CCN(CCC(=O)O)C4)no2)cc1C#N	6.31	3980	
CC(C)Oc1ccc(-c2nc(-c3cccc4c3CCN(CC(=O)O)C4)no2)cc1C#N	7.94	> 31600	
CC(C)Oc1ccc(-c2nc(-c3cccc4c3CCNC4)no2)cc1Cl	39.8	15800	

The remaining compounds from weak to strong by EC50 [1], led by results:

EC50 [1] [nM]	EC50 [2] [nM]	fraction unbound (Albumin)	Structure (SMILES)
501	2000		CC(C)Oc1ccc(-c2nc(-c3cccc4c3CN(CCCC(=O)O)C4)no2)cc1Cl
316	7940		CC(C)Oc1ccc(-c2nc(-c3cccc4c3CN(CCC(=O)O)C4)no2)cc1Cl
158	> 31600		CC(C)Oc1ccc(-c2nc(-c3cccc4c3CCN(CCC(=O)O)CC4)no2)cc1Cl
126	> 31600		CC(C)Oc1ccc(-c2nc(-c3ccc4c(c3)CCCNC4)no2)cc1C#N
126	2000		CC(C)Oc1ccc(-c2nc(-c3ccc4c(c3)CN(CCC(=O)O)CCO4)no2)cc1Cl
126	15800		CC(C)Oc1ccc(-c2nc(-c3ccc4c(c3)CNCCO4)no2)cc1Cl
79.4	> 31600		CC(C)Oc1ccc(-c2nc(-c3cccc4c3OCCNC4)no2)cc1Cl
79.4	> 31600		CC(C)Oc1ccc(-c2nc(-c3ccc4c(c3)OCCNC4)no2)cc1C#N
15.8	> 31600		CC(C)Oc1ccc(-c2nc(-c3cccc4c3CCNCC4)no2)cc1Cl
7.94	> 31600		CC(C)Oc1ccc(-c2nc(-c3cccc4c3CNC4)no2)cc1Cl
5.01	> 31600		CC(C)Oc1ccc(-c2nc(-c3cccc4c3OCCNC4CCC(=O)O)no2)cc1Cl (centres undefined)
3.98	2000		CC(C)Oc1ccc(-c2nc(-c3ccc4c(c3)CCN(CC(=O)O)CC4)no2)cc1C#N
2.51	251		CC(C)Oc1ccc(-c2nc(-c3ccc4c(c3)CNC(CCC(=O)O)CO4)no2)cc1Cl (centres undefined)
